Data on 3 molecules can be found in ChEMBL document CHEMBL1681773, “Toxic polyketides produced by Fusarium sp., an endophytic fungus isolated from Melia azedarach” (Bioorg Med Chem Lett, 2011).

The nature of this data set: Toxicity in brine shrimps larvae assessed as mortality at 10 ug/ml after 24 hrs. Type of data set: organism-based. Particulars: artemia, brine shrimp larvae; read-out: Activity.
Turning to `C[C@H](O)C/C=C/CCCCc1cc2cc(O)cc(O)c2c(=O)o1` [FUSARIUMIN], the mortality at 24 h, 10 ug/ml was 78.2%.
With `C[C@@H]1C[C@@H](O)/C=C\[C@H](O)CCC(=O)Cc2c(Cl)c(O)cc(O)c2C(=O)O1` [POCHONIN N], the mortality at 24 h, 10 ug/ml was found to be 82.8%.
As for `C[C@H]1C/C=C/[C@@H](O)[C@@H](O)CC/C=C/c2cc(O)cc(O)c2C(=O)O1` [AIGIALOMYCIN D], the mortality at 24 h, 10 ug/ml came out at 76.7%.
